# Results from paper PMC5769417, “Single- and Multiple-Dose Trials to Determine the Pharmacokinetics, Safety, Tolerability, and Sex Effect of Oral Ginsenoside Compound K in Healthy Chinese Volunteers” (Frontiers in Pharmacology, 2018).
# Read-outs that look alike come from different tables or passages of the source. Marks after values point to notes of the source that are not given here.
# Columns and labels:
# [1] = system: healthy Chinese volunteers; experiment: Single-dose trial, safety and tolerability (adverse events); format: in vivo, human
# Procedure: Single-dose pharmacokinetics: The single-dose trial was performed first. Seven doses of CK were given orally under fasting condition: 25, 50, 100, 200, 400, 600, and 800 mg. Eligible subjects (n = 76, male:female = 1:1) were randomized into each dose level (n = 8, 8, 10, 10, 10, 8, 8, respectively) or placebo groups (n = 2 for each dose group) with equal number of men and women in each group. Subjects in each group were admitted to the clinical facility the day before drug administration and received the corresponding dose of the test drug or placebo with 250 ml warm water on the morning of the dosing day. Drinking before and after medication was prohibited for 2 h, but the amount and time of drinking were not strictly controlled at other times. All subjects had standard lunch and dinner (unified light diet) after medication 4 and 10 h.
# Safety was evaluated by continuous observation of adverse events (AEs), monitoring of vital signs, ECG, hematology, biochemistry, and urinalysis at baseline, during the trials at the set time points following drug administration, and at follow-up visits after study completion. AEs were classified by their intensity into mild, moderate and severe. Additionally, the AEs were also classified according their relationship to the test drug as positive, probable, possible, remote, or unrelated. The severity of the AEs, as well as their relationship to test drug, was assessed by a qualified physician in the unit. Clinically relevant changes in vital signs, ECG and laboratory parameters were defined as marked abnormalities. ECG were recorded in the semisupine position after a rest of at least 5 min. It is worth noting that all the information, including symptoms and signs after dosing or the medications that the subjects were concomitantly taking must be recorded on the case-report form by investigators. All available data from subjects who received the test drug and placebo were included in the summaries of the safety data and were descriptively analyzed. In addition, the differences between laboratory parameters at baseline and after drug treatment were analyzed to determine whether there were clinical significances.
# All the safety data, including vital signs, laboratory indexes and ECG, were descriptively analyzed, and the statistical analyses were conducted to evaluate the effects of the test drug by comparing the differences between before and after drug treatment, between the test drug group and the placebo group and among the different dose groups.
# [2] = Phase 0 cross-over trial, sex differences in pharmacokinetics; format: in vivo, human; conditions: phase 0 trial; for half-life / Tmax: human, plasma, oral; for Tmax: read-out: Tmax, median (range); for Cmax/D, dose-normalized Cmax: in ng·ml⁻¹·mg⁻¹
# Procedure: Cmax/D, dose-normalized Cmax value; Tmax, time to maximum plasma concentration; t1/2, terminal half-life; AUClast/D, dose-normalized AUClast value; AUCinf/D, dose-normalized AUCinf value; All values are presented as mean ± SD, except for Tmax, which is expressed as median (range). SD, standard deviation. PK parameters were compared between male and female by independent-sample t-test. A non-parametric test was performed on the Tmax and t1/2. * Compared with Male, p < 0.05. These were the results of phase 0 trial, which was a cross-over clinical trial and included 12 males and 12 females.
# [3] = system: CYP2C9; parameters: method as in Xiao et al., 2016; conditions: human liver microsomes, human recombinant CYPs; ref Xiao et al., 2016; cited from earlier work
# [4] = system: beagle dogs; conditions: cited from earlier work
# [5] = single-dose trial, 25 mg (n = 8)
# [6] = single-dose trial, 50 mg (n = 8)
# [7] = single-dose trial, 100 mg (n = 10)
# [8] = single-dose trial, 200 mg (n = 10)
# [9] = single-dose trial, 400 mg (n = 10)
# [10] = single-dose trial, 600 mg (n = 8)
# [11] = single-dose trial, 800 mg (n = 8)
# [12] = single-dose trial, of the 44 cases of AEs
structure (smiles),measurement,setting,value
"CC(C)=CCC[C@](C)(OC1O[C@H](CO)[C@@H](O)[C@H](O)[C@H]1O)[C@H]1CC[C@]2(C)[C@@H]1[C@H](O)C[C@@H]1[C@@]3(C)CC[C@H](O)C(C)(C)[C@@H]3CC[C@]12C (stereo partly drawn) [CK, 20-O-beta-D-glucopyranosyl-20(S)-protopanaxadiol]",ECG after the drug treatments,[1]; both trials,none of the subjects had clinically significant abnormalities
same,intensity of all observed AEs,[1]; both trials,mild or moderate
same,serious AEs,[1]; both trials,no serious AEs reported
same,safety and tolerability,"[1]; single dose 25 to 800 mg and multiple doses of 100–400 mg, both trials",safe and well-tolerated
same,AEs after taking the test drug,[1]; single-dose trial,33 AEs
same,subjects who suffered AEs after taking the test drug,[1]; single-dose trial,22 subjects
same,Alkaline phosphatase increased (study drug-related AE),[1]; [5],0 number of subjects (%)
same,Any AEs (study drug-related),[1]; [5],0 number of subjects (%)
same,Bellyache (study drug-related AE),[1]; [5],0 number of subjects (%)
same,Blood white cells increased (study drug-related AE),[1]; [5],0 number of subjects (%)
same,Diarrhea (study drug-related AE),[1]; [5],0 number of subjects (%)
same,Direct bilirubin increased (study drug-related AE),[1]; [5],0 number of subjects (%)
same,Dizziness (study drug-related AE),[1]; [5],0 number of subjects (%)
same,Headache (study drug-related AE),[1]; [5],0 number of subjects (%)
same,Loss of appetite (study drug-related AE),[1]; [5],0 number of subjects (%)
same,Nausea (study drug-related AE),[1]; [5],0 number of subjects (%)
same,Rash (study drug-related AE),[1]; [5],0 number of subjects (%)
same,Subcutaneous bleeding (double forearm) (study drug-related AE),[1]; [5],0 number of subjects (%)
same,Total bilirubin increased (study drug-related AE),[1]; [5],0 number of subjects (%)
same,Alkaline phosphatase increased (study drug-related AE),[1]; [6],0 number of subjects (%)
same,Any AEs (study drug-related),[1]; [6],2 (2.6) number of subjects (%)
same,Bellyache (study drug-related AE),[1]; [6],0 number of subjects (%)
same,Blood white cells increased (study drug-related AE),[1]; [6],0 number of subjects (%)
same,Diarrhea (study drug-related AE),[1]; [6],0 number of subjects (%)
same,Direct bilirubin increased (study drug-related AE),[1]; [6],2 (2.6) number of subjects (%)
same,Dizziness (study drug-related AE),[1]; [6],0 number of subjects (%)
same,Headache (study drug-related AE),[1]; [6],0 number of subjects (%)
same,Loss of appetite (study drug-related AE),[1]; [6],0 number of subjects (%)
same,Nausea (study drug-related AE),[1]; [6],0 number of subjects (%)
same,Rash (study drug-related AE),[1]; [6],0 number of subjects (%)
same,Subcutaneous bleeding (double forearm) (study drug-related AE),[1]; [6],0 number of subjects (%)
same,Total bilirubin increased (study drug-related AE),[1]; [6],0 number of subjects (%)
same,Alkaline phosphatase increased (study drug-related AE),[1]; [7],0 number of subjects (%)
same,Any AEs (study drug-related),[1]; [7],2 (2.6) number of subjects (%)
same,Bellyache (study drug-related AE),[1]; [7],0 number of subjects (%)
same,Blood white cells increased (study drug-related AE),[1]; [7],0 number of subjects (%)
same,Diarrhea (study drug-related AE),[1]; [7],0 number of subjects (%)
same,Direct bilirubin increased (study drug-related AE),[1]; [7],0 number of subjects (%)
same,Dizziness (study drug-related AE),[1]; [7],1 (1.3) number of subjects (%)
same,Headache (study drug-related AE),[1]; [7],1 (1.3) number of subjects (%)
same,Loss of appetite (study drug-related AE),[1]; [7],0 number of subjects (%)
same,Nausea (study drug-related AE),[1]; [7],0 number of subjects (%)
same,Rash (study drug-related AE),[1]; [7],0 number of subjects (%)
same,Subcutaneous bleeding (double forearm) (study drug-related AE),[1]; [7],0 number of subjects (%)
same,Total bilirubin increased (study drug-related AE),[1]; [7],0 number of subjects (%)
same,Alkaline phosphatase increased (study drug-related AE),[1]; [8],1 (1.3) number of subjects (%)
same,Any AEs (study drug-related),[1]; [8],5 (6.6) number of subjects (%)
same,Bellyache (study drug-related AE),[1]; [8],0 number of subjects (%)
same,Blood white cells increased (study drug-related AE),[1]; [8],0 number of subjects (%)
same,Diarrhea (study drug-related AE),[1]; [8],2 (2.6) number of subjects (%)
same,Direct bilirubin increased (study drug-related AE),[1]; [8],2 (2.6) number of subjects (%)
same,Dizziness (study drug-related AE),[1]; [8],0 number of subjects (%)
same,Headache (study drug-related AE),[1]; [8],0 number of subjects (%)
same,Loss of appetite (study drug-related AE),[1]; [8],0 number of subjects (%)
same,Nausea (study drug-related AE),[1]; [8],0 number of subjects (%)
same,Rash (study drug-related AE),[1]; [8],0 number of subjects (%)
same,Subcutaneous bleeding (double forearm) (study drug-related AE),[1]; [8],0 number of subjects (%)
same,Total bilirubin increased (study drug-related AE),[1]; [8],1 (1.3) number of subjects (%)
same,Alkaline phosphatase increased (study drug-related AE),[1]; [9],0 number of subjects (%)
same,Any AEs (study drug-related),[1]; [9],5 (6.6) number of subjects (%)
same,Bellyache (study drug-related AE),[1]; [9],1 (1.3) number of subjects (%)
same,Blood white cells increased (study drug-related AE),[1]; [9],1 (1.3) number of subjects (%)
same,Diarrhea (study drug-related AE),[1]; [9],2 (2.6) number of subjects (%)
same,Direct bilirubin increased (study drug-related AE),[1]; [9],1 (1.3) number of subjects (%)
same,Dizziness (study drug-related AE),[1]; [9],0 number of subjects (%)
same,Headache (study drug-related AE),[1]; [9],1 (1.3) number of subjects (%)
same,Loss of appetite (study drug-related AE),[1]; [9],0 number of subjects (%)
same,Nausea (study drug-related AE),[1]; [9],0 number of subjects (%)
same,Rash (study drug-related AE),[1]; [9],0 number of subjects (%)
same,Subcutaneous bleeding (double forearm) (study drug-related AE),[1]; [9],0 number of subjects (%)
same,Total bilirubin increased (study drug-related AE),[1]; [9],0 number of subjects (%)
same,Alkaline phosphatase increased (study drug-related AE),[1]; [10],0 number of subjects (%)
same,Any AEs (study drug-related),[1]; [10],1 (1.3) number of subjects (%)
same,Bellyache (study drug-related AE),[1]; [10],0 number of subjects (%)
same,Blood white cells increased (study drug-related AE),[1]; [10],0 number of subjects (%)
same,Diarrhea (study drug-related AE),[1]; [10],0 number of subjects (%)
same,Direct bilirubin increased (study drug-related AE),[1]; [10],1 (1.3) number of subjects (%)
same,Dizziness (study drug-related AE),[1]; [10],0 number of subjects (%)
same,Headache (study drug-related AE),[1]; [10],0 number of subjects (%)
same,Loss of appetite (study drug-related AE),[1]; [10],0 number of subjects (%)
same,Nausea (study drug-related AE),[1]; [10],0 number of subjects (%)
same,Rash (study drug-related AE),[1]; [10],0 number of subjects (%)
same,Subcutaneous bleeding (double forearm) (study drug-related AE),[1]; [10],0 number of subjects (%)
same,Total bilirubin increased (study drug-related AE),[1]; [10],0 number of subjects (%)
same,Alkaline phosphatase increased (study drug-related AE),[1]; [11],0 number of subjects (%)
same,Any AEs (study drug-related),[1]; [11],3 (3.9) number of subjects (%)
same,Bellyache (study drug-related AE),[1]; [11],1 (1.3) number of subjects (%)
same,Blood white cells increased (study drug-related AE),[1]; [11],0 number of subjects (%)
same,Diarrhea (study drug-related AE),[1]; [11],1 (1.3) number of subjects (%)
same,Direct bilirubin increased (study drug-related AE),[1]; [11],0 number of subjects (%)
same,Dizziness (study drug-related AE),[1]; [11],0 number of subjects (%)
same,Headache (study drug-related AE),[1]; [11],0 number of subjects (%)
same,Loss of appetite (study drug-related AE),[1]; [11],0 number of subjects (%)
same,Nausea (study drug-related AE),[1]; [11],0 number of subjects (%)
same,Rash (study drug-related AE),[1]; [11],1 (1.3) number of subjects (%)
same,Subcutaneous bleeding (double forearm) (study drug-related AE),[1]; [11],0 number of subjects (%)
same,Total bilirubin increased (study drug-related AE),[1]; [11],0 number of subjects (%)
same,AEs possibly related to CK,[1]; [12],7 cases
same,AEs probably related to the test drug,[1]; [12],13 cases
same,half-life,[2]; Female (n = 12),6.7 ± 1.2 h
same,Tmax,[2]; Female (n = 12),2.8 h
same,half-life,[2]; Male (n = 12),6.1 ± 1.1 h
same,Tmax,[2]; Male (n = 12),3.3 h
same,"AUCinf/D, dose-normalized AUCinf",[2]; Female (n = 12),2016.33 ± 1124.90*
same,"AUClast/D, dose-normalized AUClast",[2]; Female (n = 12),1984.33 ± 1809.10*
same,"Cmax/D, dose-normalized Cmax",[2]; Female (n = 12),24.87 ± 8.23*
same,"AUClast/D, dose-normalized AUClast",[2]; Male (n = 12),387.86 ± 174.14
same,"Cmax/D, dose-normalized Cmax",[2]; Male (n = 12),16.44 ± 2.82
same,inhibition of CYP2C9,[3],moderate inhibitor
same,substrate of CYP2C9,[3],substrate
same,No observed adverse effect level (NOAEL),[4],7.5 mg/kg
same,dose at which diarrhea symptom occurred,[4]; long-term toxicity test,75 mg/kg
